Source: patent US10800791B2, “Triazole ACC inhibitors and uses thereof” (Gilead Apollo, LLC, priority 2015, dated 2020)
≈ marks a conversion by molar mass, not a printed value. Like-named read-outs stand apart in the source and are kept apart here.

Experiments:
Diplodia maydis (Dm) = assay: Growth inhibition assay of fungal pathogens, Dm; assay type: cell-based; conditions: Stenocarpella maydis, 48 h
Summary of the method: (§1)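 Spore suspension in 17% V8 liquid media; cpd final 50/10/2 or 2/0.4/0.08 ppm, 2% DMSO. OD600 + visual, 24 & 48 h; % inhibition at 48 h vs 2% DMSO ctrl.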

C. krusei = assay: Antifungal Activity Assay (broth microtiter MIC), C. krusei; assay type: cell-based, Candida krusei; conditions: Pichia kudriavzevii, ATCC6258, 48 h
Summary of the method: (§2)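 CLSI M27-A3 microdilution; RPMI 1640+MOPS; 2.5×10^3 CFU/mL final inoculum; cultures from Sabouraud dextrose agar, 35° C overnight; compound working solution 128 μg/mL from 1 mg/mL DMSO stock; visual MIC at 48 h vs growth control.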

[1] = system: Fusarium moniliforme (Fm); assay: Growth inhibition assay of fungal pathogens, Fm; assay type: cell-based; conditions: for IC90: Fusarium verticillioides, 48 h, read-out: Concentration at 90% Inhibition Fm
Summary of the method: as §1

[2] = system: Phytophthora capsici (Pc); assay: Growth inhibition assay of fungal pathogens, Pc; assay type: cell-based; conditions: 48 h
Summary of the method: as §1

Botrtyis cinerea (Bc) = assay: Growth inhibition assay of fungal pathogens, Bc; assay type: cell-based; conditions: 48 h
Summary of the method: as §1

C. albicans = assay: Antifungal Activity Assay (broth microtiter MIC), C. albicans; assay type: cell-based, Candida albicans; conditions: Candida albicans, ATCC90028, 48 h
Summary of the method: as §2

fungal (fACC2) = fungal (fACC2) (UniProt Q00955); conditions: read-out: fACC2 (in vitro ACC2 Inhibition Assay, IC50), ADP-Glo, 5 nM ACC2, 20 μM ATP, 20 μM acetyl-CoA
Septoria tritici (St) = assay: Growth inhibition assay of fungal pathogens, St; assay type: cell-based; conditions: Zymoseptoria tritici, 48 h
Summary of the method: as §1

[3] = system: Collectotrichum graminicola (Cg); assay: Growth inhibition assay of fungal pathogens, Cg; assay type: cell-based; conditions: 48 h
Summary of the method: as §1

C. parapsilosis = assay: Antifungal Activity Assay (broth microtiter MIC), C. parapsilosis; assay type: cell-based, Candida parapsilosis; conditions: Lodderomyces parapsilosis, ATCC22019, 48 h
Summary of the method: as §2

[4] = system: Fusarium virguliforme (Fv); assay: Growth inhibition assay of fungal pathogens, Fv; assay type: cell-based; conditions: 48 h
Summary of the method: as §1

[5] = Fusarium moniliforme, growth inhibition at 48 hours vs 2% DMSO control

Sequence of fungal (fACC2) (Q00955 whole entry): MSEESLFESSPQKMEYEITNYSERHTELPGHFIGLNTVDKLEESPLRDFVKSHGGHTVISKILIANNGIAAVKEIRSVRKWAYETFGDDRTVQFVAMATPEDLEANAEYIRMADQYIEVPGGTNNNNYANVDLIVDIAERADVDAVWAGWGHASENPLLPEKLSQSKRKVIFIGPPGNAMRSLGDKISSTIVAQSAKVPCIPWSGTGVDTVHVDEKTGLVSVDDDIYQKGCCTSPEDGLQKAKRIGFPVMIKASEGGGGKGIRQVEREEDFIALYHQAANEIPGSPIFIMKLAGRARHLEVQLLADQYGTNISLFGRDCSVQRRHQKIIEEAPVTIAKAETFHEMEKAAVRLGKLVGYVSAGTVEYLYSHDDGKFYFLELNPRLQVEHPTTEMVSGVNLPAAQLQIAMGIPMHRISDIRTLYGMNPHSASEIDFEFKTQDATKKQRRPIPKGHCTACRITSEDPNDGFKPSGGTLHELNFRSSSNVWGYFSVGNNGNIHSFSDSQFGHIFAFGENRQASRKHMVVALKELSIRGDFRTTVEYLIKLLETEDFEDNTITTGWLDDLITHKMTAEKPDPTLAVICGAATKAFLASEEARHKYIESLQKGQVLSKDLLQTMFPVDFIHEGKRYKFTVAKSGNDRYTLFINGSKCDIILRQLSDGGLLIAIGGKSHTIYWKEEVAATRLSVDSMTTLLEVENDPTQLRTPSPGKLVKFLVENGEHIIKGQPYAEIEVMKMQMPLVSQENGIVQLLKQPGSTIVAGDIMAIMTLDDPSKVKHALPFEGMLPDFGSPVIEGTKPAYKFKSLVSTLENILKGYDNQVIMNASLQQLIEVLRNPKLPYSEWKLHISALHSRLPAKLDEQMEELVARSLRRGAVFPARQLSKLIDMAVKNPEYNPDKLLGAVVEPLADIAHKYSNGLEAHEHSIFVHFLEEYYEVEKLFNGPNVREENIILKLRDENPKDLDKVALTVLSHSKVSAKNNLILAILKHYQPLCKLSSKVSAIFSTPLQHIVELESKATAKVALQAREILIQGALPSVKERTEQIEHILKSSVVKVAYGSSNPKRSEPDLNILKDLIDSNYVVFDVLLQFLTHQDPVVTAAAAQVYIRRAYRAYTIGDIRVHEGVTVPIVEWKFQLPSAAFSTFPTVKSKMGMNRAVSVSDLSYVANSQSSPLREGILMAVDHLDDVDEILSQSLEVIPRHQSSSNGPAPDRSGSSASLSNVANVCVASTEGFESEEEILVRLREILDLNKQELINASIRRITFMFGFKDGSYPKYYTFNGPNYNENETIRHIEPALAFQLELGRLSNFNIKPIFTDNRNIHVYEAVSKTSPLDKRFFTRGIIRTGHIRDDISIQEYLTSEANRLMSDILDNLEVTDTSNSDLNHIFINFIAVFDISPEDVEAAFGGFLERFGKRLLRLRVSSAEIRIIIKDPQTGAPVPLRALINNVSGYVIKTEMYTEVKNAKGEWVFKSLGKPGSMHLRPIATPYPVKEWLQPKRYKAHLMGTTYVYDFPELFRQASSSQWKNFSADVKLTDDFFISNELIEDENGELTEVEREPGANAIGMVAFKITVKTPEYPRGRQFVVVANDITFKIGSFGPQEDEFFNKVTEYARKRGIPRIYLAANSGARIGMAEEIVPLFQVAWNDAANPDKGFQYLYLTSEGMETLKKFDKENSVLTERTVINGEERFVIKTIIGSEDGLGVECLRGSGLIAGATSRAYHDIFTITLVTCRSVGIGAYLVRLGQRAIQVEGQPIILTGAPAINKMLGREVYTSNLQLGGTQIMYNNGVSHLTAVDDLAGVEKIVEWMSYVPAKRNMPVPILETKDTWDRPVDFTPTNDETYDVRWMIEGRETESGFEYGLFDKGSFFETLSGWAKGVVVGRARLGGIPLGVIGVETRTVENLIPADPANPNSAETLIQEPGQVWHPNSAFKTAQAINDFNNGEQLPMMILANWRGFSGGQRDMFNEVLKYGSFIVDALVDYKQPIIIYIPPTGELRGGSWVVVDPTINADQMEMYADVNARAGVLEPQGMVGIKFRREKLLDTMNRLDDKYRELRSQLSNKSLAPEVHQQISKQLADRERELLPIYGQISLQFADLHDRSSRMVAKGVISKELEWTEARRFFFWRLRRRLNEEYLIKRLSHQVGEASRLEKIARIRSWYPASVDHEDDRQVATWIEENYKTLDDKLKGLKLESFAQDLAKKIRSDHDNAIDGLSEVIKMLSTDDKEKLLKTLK

Compound: COCCCO[C@@H](Cn1c(=O)n([C@H](C)C(=O)NC(C)C)c(=O)c2c(C)c(-n3nccn3)sc21)c1cc(F)ccc1OC [Compound I-87, (R)-2-(1-((R)-2-(5-fluoro-2-methoxyphenyl)-2-(3-methoxy-propoxy)ethyl)-5-methyl-2,4-dioxo-6-(2H-1,2,3-triazol-2-yl)-1,4-dihydrothieno[2,3-d]pyrimidin-3(2H)-yl)-N-isopropylpropanamide]
- IC90 (Diplodia maydis (Dm); Diplodia maydis, growth inhibition at 48 hours vs 2% DMSO control, read-out: Concentration at 90% Inhibition Dm): 0.4 µg/mL (≈ 0.664 µM)
- IC90 (Diplodia maydis (Dm); Diplodia maydis, growth inhibition vs 2% DMSO control at 48 hours, read-out: Concentration at 90% Inhibition Dm): 0.4 µg/mL (≈ 0.664 µM)
- MIC (C. krusei; Table 3a, ATCC 6258, 3 replicates, MIC recorded at 48 h, read-out: MIC, C. krusei ATCC 6258): 1.1 to 2 µg/mL (≈ 1.83 to 3.32 µM)
- MIC (C. krusei; Table 3b (additional results), ATCC 6258, 3 replicates, MIC recorded at 48 h, read-out: MIC, C. krusei ATCC 6258): 1.01 to 2 µg/mL (≈ 1.68 to 3.32 µM)
- IC90 [1, 5]: 0.08 µg/mL (≈ 0.133 µM)
- IC90 ([1]; Fusarium moniliforme, growth inhibition vs 2% DMSO control at 48 hours): 0.08 µg/mL (≈ 0.133 µM)
- IC90 ([2]; growth inhibition at 48 hours vs 2% DMSO control, read-out: Concentration at 90% Inhibition Pc): > 50 µg/mL
- IC90 ([2]; growth inhibition vs 2% DMSO control at 48 hours, read-out: Concentration at 90% Inhibition Pc): > 50 µg/mL
- IC90 (Botrtyis cinerea (Bc); Botrtyis cinerea, growth inhibition at 48 hours vs 2% DMSO control, read-out: Concentration at 90% Inhibition Bc): 0.08 µg/mL (≈ 0.133 µM)
- IC90 (Botrtyis cinerea (Bc); Botrtyis cinerea, growth inhibition vs 2% DMSO control at 48 hours, read-out: Concentration at 90% Inhibition Bc): 0.08 µg/mL (≈ 0.133 µM)
- MIC (C. albicans; Table 3a, ATCC 90028, 3 replicates, MIC recorded at 48 h, read-out: MIC, C. albicans ATCC 90028): 1.1 to 2 µg/mL (≈ 1.83 to 3.32 µM)
- MIC (C. albicans; Table 3b (additional results), ATCC 90028, 3 replicates, MIC recorded at 48 h, read-out: MIC, C. albicans ATCC 90028): 2.01 to 4 µg/mL (≈ 3.34 to 6.64 µM)
- IC50 (fungal (fACC2); Table 2a): 1 to 5 nM
- IC50 (fungal (fACC2); Table 2b, additional results): 1 to 5 nM
- IC90 (Septoria tritici (St); Septoria tritici, growth inhibition at 48 hours vs 2% DMSO control, read-out: Concentration at 90% Inhibition St): 10 µg/mL (≈ 16.6 µM)
- IC90 (Septoria tritici (St); Septoria tritici, growth inhibition vs 2% DMSO control at 48 hours, read-out: Concentration at 90% Inhibition St): > 50 µg/mL
- IC90 ([3]; Collectotrichum graminicola, growth inhibition at 48 hours vs 2% DMSO control, read-out: Concentration at 90% Inhibition Cg): 0.08 µg/mL (≈ 0.133 µM)
- IC90 ([3]; Collectotrichum graminicola, growth inhibition vs 2% DMSO control at 48 hours, read-out: Concentration at 90% Inhibition Cg): 0.08 µg/mL (≈ 0.133 µM)
- MIC (C. parapsilosis; Table 3a, ATCC 22019, 3 replicates, MIC recorded at 48 h, read-out: MIC, C. parapsilosis ATCC 22019): 0.25 to 1 µg/mL (≈ 0.415 to 1.66 µM)
- MIC (C. parapsilosis; Table 3b (additional results), ATCC 22019, 3 replicates, MIC recorded at 48 h, read-out: MIC, C. parapsilosis ATCC 22019): 1.01 to 2 µg/mL (≈ 1.68 to 3.32 µM)
- IC90 ([4]; growth inhibition at 48 hours vs 2% DMSO control, read-out: Concentration at 90% Inhibition Fv): 0.08 µg/mL (≈ 0.133 µM)
- IC90 ([4]; growth inhibition vs 2% DMSO control at 48 hours, read-out: Concentration at 90% Inhibition Fv): 0.08 µg/mL (≈ 0.133 µM)

Compound: COc1ccc(F)cc1[C@H](Cn1c(=O)n([C@@H](C)C(=O)NC(C)C)c(=O)c2c(C)c(-n3nccn3)sc21)OCCO [Compound I-88, (S)-2-(1-((R)-2-(5-fluoro-2-methoxyphenyl)-2-(2-hydroxyethoxy)ethyl)-5-methyl-2,4-dioxo-6-(2H-1,2,3-triazol-2-yl)-1,4-dihydro-thieno[2,3-d]pyrimidin-3(2H)-yl)-N-isopropylpropanamide]
- IC90 (Diplodia maydis (Dm); read-out: Concentration at 90% Inhibition Dm, Diplodia maydis, growth inhibition at 48 hours vs 2% DMSO control): 0.4 µg/mL (≈ 0.696 µM)
- IC90 (Diplodia maydis (Dm); read-out: Concentration at 90% Inhibition Dm, Diplodia maydis, growth inhibition vs 2% DMSO control at 48 hours): 0.4 µg/mL (≈ 0.696 µM)
- MIC (C. krusei; read-out: MIC, C. krusei ATCC 6258, Table 3a, 3 replicates, MIC recorded at 48 h): 0.25 to 1 µg/mL (≈ 0.435 to 1.74 µM)
- MIC (C. krusei; read-out: MIC, C. krusei ATCC 6258, Table 3b (additional results), 3 replicates, MIC recorded at 48 h): 1.01 to 2 µg/mL (≈ 1.76 to 3.48 µM)
- Concentration at 90% Inhibition Fm [1, 5]: AA (compound concentration of 0.08 ppm at 90% inhibition of fungal pathogens)
- IC90 [1]: 0.08 µg/mL (≈ 0.139 µM)
- IC90 ([2]; read-out: Concentration at 90% Inhibition Pc, Phytophthora capsici, growth inhibition at 48 hours vs 2% DMSO control): 2 µg/mL (≈ 3.48 µM)
- IC90 ([2]; read-out: Concentration at 90% Inhibition Pc, Phytophthora capsici, growth inhibition vs 2% DMSO control at 48 hours): 2 µg/mL (≈ 3.48 µM)
- IC90 (Botrtyis cinerea (Bc); read-out: Concentration at 90% Inhibition Bc, Botrtyis cinerea, growth inhibition at 48 hours vs 2% DMSO control): 2 µg/mL (≈ 3.48 µM)
- IC90 (Botrtyis cinerea (Bc); read-out: Concentration at 90% Inhibition Bc, Botrtyis cinerea, growth inhibition vs 2% DMSO control at 48 hours): 2 µg/mL (≈ 3.48 µM)
- MIC (C. albicans; read-out: MIC, C. albicans ATCC 90028, Table 3a, 3 replicates, MIC recorded at 48 h): 1.1 to 2 µg/mL (≈ 1.91 to 3.48 µM)
- MIC (C. albicans; read-out: MIC, C. albicans ATCC 90028, Table 3b (additional results), 3 replicates, MIC recorded at 48 h): 2.01 to 4 µg/mL (≈ 3.5 to 6.96 µM)
- IC50 (fungal (fACC2); Table 2a): 1 to 5 nM
- IC50 (fungal (fACC2); Table 2b, additional results): 0.3 to 1 nM
- IC90 (Septoria tritici (St); read-out: Concentration at 90% Inhibition St, Septoria tritici, growth inhibition at 48 hours vs 2% DMSO control): 2 µg/mL (≈ 3.48 µM)
- IC90 (Septoria tritici (St); read-out: Concentration at 90% Inhibition St, Septoria tritici, growth inhibition vs 2% DMSO control at 48 hours): 10 µg/mL (≈ 17.4 µM)
- IC90 ([3]; read-out: Concentration at 90% Inhibition Cg, Collectotrichum graminicola, growth inhibition at 48 hours vs 2% DMSO control): 0.08 µg/mL (≈ 0.139 µM)
- IC90 ([3]; read-out: Concentration at 90% Inhibition Cg, Collectotrichum graminicola, growth inhibition vs 2% DMSO control at 48 hours): 0.08 µg/mL (≈ 0.139 µM)
- MIC (C. parapsilosis; read-out: MIC, C. parapsilosis ATCC 22019, Table 3a, 3 replicates, MIC recorded at 48 h): 1.1 to 2 µg/mL (≈ 1.91 to 3.48 µM)
- MIC (C. parapsilosis; read-out: MIC, C. parapsilosis ATCC 22019, Table 3b (additional results), 3 replicates, MIC recorded at 48 h): 1.01 to 2 µg/mL (≈ 1.76 to 3.48 µM)
- IC90 ([4]; read-out: Concentration at 90% Inhibition Fv, Fusarium virguliforme, growth inhibition at 48 hours vs 2% DMSO control): 2 µg/mL (≈ 3.48 µM)
- IC90 ([4]; read-out: Concentration at 90% Inhibition Fv, Fusarium virguliforme, growth inhibition vs 2% DMSO control at 48 hours): 2 µg/mL (≈ 3.48 µM)
